Measured values from patent US20220402935A1, “HETEROCYCLIC COMPOUND” (FIMECS, INC., priority 2019, published 2022).

Experiments:
[1] = target: T1, IRAK-M (Homo sapiens, UniProt Q9Y616); assay: IRAK-M binding inhibitory activity (KINOMEscan active site-dependent competitive assay); design: purchased Eurofins Discover X; conditions: for remaining binding at 1 µM: concentration of the test compound 1 μM, first symbol of cell, read-out: IRAK-M binding inhibition activity % Ctrl
T1 sequence (Q9Y616 1-596): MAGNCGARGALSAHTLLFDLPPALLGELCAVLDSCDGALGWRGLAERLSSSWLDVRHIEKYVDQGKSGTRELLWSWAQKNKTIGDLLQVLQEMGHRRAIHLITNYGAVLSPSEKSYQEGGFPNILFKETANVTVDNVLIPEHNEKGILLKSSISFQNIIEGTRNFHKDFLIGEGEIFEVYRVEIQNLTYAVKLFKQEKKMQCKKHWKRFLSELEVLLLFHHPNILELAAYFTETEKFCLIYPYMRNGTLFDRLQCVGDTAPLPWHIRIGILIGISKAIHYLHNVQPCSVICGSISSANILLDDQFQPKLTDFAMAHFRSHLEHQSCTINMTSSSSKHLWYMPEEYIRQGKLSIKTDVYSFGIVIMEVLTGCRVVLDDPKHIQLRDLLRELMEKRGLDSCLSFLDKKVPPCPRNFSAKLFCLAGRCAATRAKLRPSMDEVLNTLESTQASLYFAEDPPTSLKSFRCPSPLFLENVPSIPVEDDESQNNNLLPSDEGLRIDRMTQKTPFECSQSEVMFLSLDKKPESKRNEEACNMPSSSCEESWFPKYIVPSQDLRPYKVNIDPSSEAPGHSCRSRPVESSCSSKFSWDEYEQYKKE
In short: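 Active site-dependent competition binding assay (KINOMEscan) against human IRAK-M. Result expressed as % Ctrl = (compound signal − positive control signal)/(DMSO signal − positive control signal) × 100, where DMSO = 100% Ctrl and control compound = 0% Ctrl.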

[2] = target: T2, human XIAP_BIR3 domain purified protein (Homo sapiens, UniProt P98170); assay: XIAP binding inhibitory activity (HTRF, b-Smac ligand); conditions: for IC50: second symbol of cell, read-out: XIAP binding inhibition IC50 value; for inhibition at 3 µM: concentration of the test compound 3 μM, first symbol of cell, read-out: XIAP binding inhibition rate
T2 construct: purchased R & D
T2 sequence (P98170 252-356 limits assumed): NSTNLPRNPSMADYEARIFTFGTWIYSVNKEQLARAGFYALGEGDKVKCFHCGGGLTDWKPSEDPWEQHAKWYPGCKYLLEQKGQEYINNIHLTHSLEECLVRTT
Description: Human XIAP binding inhibitory activity was measured by the Homogeneous Time Resolved Fluorescence (HTRF) method with using commercially available human XIAP_BIR3 domain purified protein (R & D) and as a ligand a Smac N-terminal peptide (AVPIAQK (SEQ ID NO: 1)) (hereinafter referred to as “b-Smac”; Peptide Research Laboratories, Inc.) biotinylated at the C-terminus according to a conventional method.
The HTRF method will be described in detail below.
The test compound diluted with a reaction buffer (25 mM HEPES Buffer containing 100 mM NaCl, 0.1% BSA, and 0.1% triton X-100, pH 7.5) was added to a 384-well white shallow bottom plate (Greiner 784076) at 1 μL/well and flash centrifuged for 30 seconds. Subsequently, human XIAP_BIR3 domain purified protein was diluted with the reaction buffer to obtain a 90 nM sample diluent, and the resultant sample diluent was added to the above-mentioned white superficial plate at 4.5 μL/well and flash centrifuged for 30 seconds. Subsequently, b-Smac diluted to 90 nM with the reaction buffer was added to the above-mentioned white superficial plat at 4.5 μL/well and flash centrifuged for 30 seconds. A mixed solution of Anti-6 HIS-Cryptate (Eu^3+ Cryptate-conjugated mouse monoclonal antibody anti-6 Histidine; cisbio) and Streptavidin-XL^eat (Highgrade XL665-conjugated streptavidin; cisbio) both diluted 100-fold with HTRF detection buffer (cisbio) at a volume ratio of 1:1 was added to the above white superficial plate at 10 μL/well. After flash centrifuging the white shallow bottom plate for 30 seconds, the white shallow bottom plate was left at room temperature for 4 hours or more in the dark. The white superficial plate after being left was subjected to fluorescence intensity measurement (excitation wavelength: 320 nm, fluorescence wavelength: 665 nm and 615 nm) by EnVision (Perkin Elmer). The binding inhibition rate (%) was calculated based on the HTRF ratio in the presence of the test compound to the HTRF ratio in the absence of the test compound (fluorescence intensity at 665 nm/fluorescence intensity at 615 nm).
The XIAP binding inhibition rate (%) of test compounds was evaluated.

SMILES | remaining binding at 1 µM [1] | IC50 [2] | inhibition at 3 µM [2] | IC50 ([1]; second symbol of cell, read-out: IRAK-M binding inhibition IC50 value)
CN[C@@H](C)C(=O)N[C@H](C(=O)N1CCC[C@H]1c1nc(C(=O)c2cccc(OCCOCCOc3cc(CN4CCC(Oc5ccnc6ccsc56)CC4)on3)c2)cs1)C1CCCCC1 [Example 58, (S)-N-((S)-1-cyclohexyl-2-oxo-2-((S)-2-(4-(3-(2-(2-((5-((4-(thieno[3,2-b]pyridin-7-yloxy)piperidin-1-yl)methyl)isoxazol-3-yl)oxy)ethoxy)ethoxy)benzoyl)thiazol-2-yl)pyrrolidin-1-yl)ethyl)-2-(methylamino)propanamide] | < 25% | < 0.3 µM | – | –
CN[C@@H](C)C(=O)N[C@H](C(=O)N1CCN(C(=O)c2cc3cc(F)ccc3n2CC(=O)N(C)CCOc2cc(CN3CCC(Oc4ccnc5ccsc45)CC3)on2)[C@@H](C)C1)C1CCCCC1 [Example 50, (S)-N-((S)-1-cyclohexyl-2-((S)-4-(5-fluoro-1-(2-(methyl(2-((5-((4-(thieno[3,2-b]pyridin-7-yloxy)piperidin-1-yl)methyl)isoxazol-3-yl)oxy)ethyl)amino)-2-oxoethyl)-1H-indole-2-carbonyl)-3-methylpiperazin-1-yl)-2-oxoethyl)-2-(methylamino)propanamide] | – | 3 to 30 µM | – | –
CN[C@@H](C)C(=O)N[C@H](C(=O)N1CCC[C@H]1c1nc(C(=O)c2cccc(OCCOCCOCCOCCOc3cc(CN4CCC(Oc5ccnc6ccsc56)CC4)on3)c2)cs1)C1CCCCC1 [Example 60, (S)-N-((S)-1-cyclohexyl-2-oxo-2-((S)-2-(4-(3-(2-(2-(2-(2-((5-((4-(thieno[3,2-b]pyridin-7-yloxy)piperidin-1-yl)methyl)isoxazol-3-yl)oxy)ethoxy)ethoxy)ethoxy)ethoxy)benzoyl)thiazol-2-yl)pyrrolidin-1-yl)ethyl)-2-(methylamino)propanamide] | < 25% | < 0.3 µM | – | –
CN[C@@H](C)C(=O)N[C@H](C(=O)N1CCN(C(=O)c2c(OCCOCCOCCOCCOc3cc(CN4CCC(Oc5ccnc6ccsc56)CC4)on3)c3cc(F)c(F)cc3n2C)CC1)C1CCCCC1 [Example 23, (S)-N-((S)-1-cyclohexyl-2-(4-(5,6-difluoro-1-methyl-3-(2-(2-(2-(2-((5-((4-(thieno[3,2-b]pyridin-7-yloxy)piperidin-1-yl)methyl)isoxazol-3-yl)oxy)ethoxy)ethoxy)ethoxy)ethoxy)-1H-indole-2-carbonyl)piperazin-1-yl)-2-oxoethyl)-2-(methylamino)propanamide] | 25 to 50% | – | 25 to 50% | –
C[C@@H]1CN(CC(=O)N2CCN(C(=O)c3cc4cc(F)c(F)cc4n3C)C[C@H]2C)[C@@H](COCCOCCOCCOCCOc2cc(CN3CCC(Oc4ccnc5ccsc45)CC3)on2)CN1 [Example 19, 1-((R)-4-(5,6-difluoro-1-methyl-1H-indole-2-carbonyl)-2-methylpiperazin-1-yl)-2-((2R,5R)-5-methyl-2-(13-((5-((4-(thieno[3,2-b]pyridin-7-yloxy)piperidin-1-yl)methyl)isoxazol-3-yl)oxy)-2,5,8,11-tetraoxatridecyl)piperazin-1-yl)ethan-1-one] | – | 0.3 to 3 µM | – | 0.3 to 1 µM
CN[C@@H](C)C(=O)N[C@H](C(=O)N1CCN(C(=O)c2c(C(=O)NCCOCCOCCOc3cc(CN4CCC(Oc5ccnc6ccsc56)CC4)n(C)n3)c3cc(F)c(F)cc3n2C)CC1)C1CCCCC1 [Example 7, 2-(4-((S)-2-cyclohexyl-2-((S)-2-(methylamino)propanamido)acetyl)piperazine-1-carbonyl)-5,6-difluoro-1-methyl-N-(2-(2-(2-((1-methyl-5-((4-(thieno[3,2-b]pyridin-7-yloxy)piperidin-1-yl)methyl)-1H-pyrazol-3-yl)oxy)ethoxy)ethoxy)ethyl)-1H-indole-3-carboxamide] | 25 to 50% | 0.3 to 3 µM | – | –
CN[C@@H](C)C(=O)N[C@H](C(=O)N1CCN(C(=O)c2cc3cc(F)c(F)cc3n2CC(=O)N2CCOC[C@@H]2COc2cc(CN3CCC(Oc4ccnc5ccsc45)CC3)on2)CC1)C1CCCCC1 [Example 45, (S)-N-((S)-1-cyclohexyl-2-(4-(5,6-difluoro-1-(2-oxo-2-((R)-3-(((5-((4-(thieno[3,2-b]pyridin-7-yloxy)piperidin-1-yl)methyl)isoxazol-3-yl)oxy)methyl)morpholino)ethyl)-1H-indole-2-carbonyl)piperazin-1-yl)-2-oxoethyl)-2-(methylamino)propanamide] | 25 to 50% | 3 to 30 µM | – | –
CN[C@@H](C)C(=O)N[C@H](C(=O)N1CCN(C(=O)c2c(C(=O)N(C)CCOCCOCCOc3cc(CN4CCC(Oc5ccnc6ccsc56)CC4)on3)c3cc(F)ccc3n2C)CC1)[C@H](O)C(C)C [Example 14, 5-fluoro-2-(4-((2S,3R)-3-hydroxy-4-methyl-2-((S)-2-(methylamino)propanamido)pentanoyl)piperazine-1-carbonyl)-N,1-dimethyl-N-(2-(2-(2-((5-((4-(thieno[3,2-b]pyridin-7-yloxy)piperidin-1-yl)methyl)isoxazol-3-yl)oxy)ethoxy)ethoxy)ethyl)-1H-indole-3-carboxamide] | < 25% | 3 to 30 µM | – | –
CN[C@@H](C)C(=O)N[C@H](C(=O)N1CCN(C(=O)c2ccc3c(c2)cc(C)n3CCOCCOCCOc2cc(CN3CCC(Oc4ccnc5ccsc45)CC3)on2)C[C@H]1C)C1CCCCC1 [Example 56, (S)-N-((S)-1-cyclohexyl-2-((R)-2-methyl-4-(2-methyl-1-(2-(2-(2-((5-((4-(thieno[3,2-b]pyridin-7-yloxy)piperidin-1-yl)methyl)isoxazol-3-yl)oxy)ethoxy)ethoxy)ethyl)-1H-indole-5-carbonyl)piperazin-1-yl)-2-oxoethyl)-2-(methylamino)propanamide] | 50 to 75% | 0.3 to 3 µM | – | –
CN[C@@H](C)C(=O)N[C@H](C(=O)N1CCN(C(=O)c2ccc3c(c2)cc(C)n3CCOCCOCCOc2cc(CN3CCC(Oc4ccnc5ccsc45)CC3)on2)CC1)C1CCCCC1 [Example 55, (S)-N-((S)-1-cyclohexyl-2-(4-(2-methyl-1-(2-(2-(2-((5-((4-(thieno[3,2-b]pyridin-7-yloxy)piperidin-1-yl)methyl)isoxazol-3-yl)oxy)ethoxy)ethoxy)ethyl)-1H-indole-5-carbonyl)piperazin-1-yl)-2-oxoethyl)-2-(methylamino)propanamide] | 25 to 50% | 0.3 to 3 µM | – | –
CN[C@@H](C)C(=O)N[C@H](C(=O)N1CCN(C(=O)c2cc3cc(F)ccc3n2CC(=O)N2C[C@@H](Oc3cc(CN4CCC(Oc5ccnc6ccsc56)CC4)on3)C[C@H]2CO)[C@@H](C)C1)C1CCCCC1 [Example 43, (S)-N-((S)-1-cyclohexyl-2-((S)-4-(5-fluoro-1-(2-((2S,4S)-2-(hydroxymethyl)-4-((5-((4-(thieno[3,2-b]pyridin-7-yloxy)piperidin-1-yl)methyl)isoxazol-3-yl)oxy)pyrrolidin-1-yl)-2-oxoethyl)-1H-indole-2-carbonyl)-3-methylpiperazin-1-yl)-2-oxoethyl)-2-(methylamino)propanamide] | – | 3 to 30 µM | – | –
CN[C@@H](C)C(=O)N[C@H](C(=O)N1CCN(C(=O)c2cc3cc(F)c(F)cc3n2CCOCCOCCOc2cc(CN3CCC(Oc4ccnc5ccsc45)CC3)on2)CC1)C1CCCCC1 [Example 30, (S)-N-((S)-1-cyclohexyl-2-(4-(5,6-difluoro-1-(2-(2-(2-((5-((4-(thieno[3,2-b]pyridin-7-yloxy)piperidin-1-yl)methyl)isoxazol-3-yl)oxy)ethoxy)ethoxy)ethyl)-1H-indole-2-carbonyl)piperazin-1-yl)-2-oxoethyl)-2-(methylamino)propanamide] | – | – | > 25% | –
